Measurements from patent US20150038575A1, “MELANOGENESIS-INHIBITORY CONSTITUENTS OF Ligusticum sinense” (priority 2013, published 2015).

Assays:
tyrosinase = assay: Assay of tyrosinase activity (L-tyrosine substrate, absorbance at 475 nm); format: biochemical; conditions: mushroom tyrosinase, pH 6.8, 37° C.
Experimental: The source of the tested tyrosinase was from mushroom, and the substrate of the tyrosinase was L-tyrosine. The experiment was performed by the method below. First, 40 μL of pH 6.8 phosphate buffer solution, 40 μL of various sample solution (samples in 0.07M pH6.8 phosphate buffer solution containing 0.1 vol % of DMSO), and 40 μL of tyrosinase (250 unit/mL, dissolved in pH 6.8 phosphate buffer solution at a concentration of 0.07 M) were sequentially and respectively added into 96-wells plate. The sample solutions above respectively contain the compounds II, III, and kojic acid. The group added with the sample solution containing kojic acid was used as positive control (PC). A group without adding the sample solution was used as control (C). The mixtures described above were thermostat at 37° C. for 10 minutes. Then, 80 μL of tyrosine solutions (0.4 mg/mL, dissolved in 0.07M pH6.8 phosphate buffer solution) were respectively added into each mixture and thermostat for another 20 minutes to perform reaction. The amount of the obtained product L-DOPA of each mixture was measured at 475 nm to get absorbance of each sample. Therefore, the tyrosinase activity was calculated by the formula below. Tyrosinase activity(%)=[(A−B)/(C−D)]×100 The symbol A above is the absorbance of groups containing a sample and tyrosinase. The symbol B above is the absorbance of groups containing a sample but not tyrosinase. The symbol C above is the absorbance of groups containing tyrosinase but not a sample.

[1] = tested on: B16-F10 murine melanoma cells; assay: Viability test of B16-F10 murine melanoma cells (MTT assay); format: cell-based; conditions: 72 hours; for cell viability: FIG. 8A
Experimental: In this test, B16-F10 murine melanoma cells (BCRC No. 60031) were used.
First, the B16-F10 murine melanoma cells were cultured in Dulbecco's Modified Eagle's Medium (abbreviated as DMEM, which contains 90% (v/v) DMEM, 10% (v/v) fetal bovine serum), and additionally added 1% (v/v) Penicillin-Streptomycin Solution. Then, the cells in the mediums were incubated under 5% CO2/air at 37° C. in 70% of humidity. The medium was exchanged every two days. When the cells grew to a density of 80-90%, the cells were treated by trypsin to desorb the cells from the walls of containers Next, haemocytometer (Neubauer Improved., Marienfeld, Germany) was used to count the number of the cells. Proper amount of cells were then transplanted into cell culture plates to prepare for cell viability tests.
Cell viability rate was determined by MTT assay. MTT assay was performed by using […] in the mitochondria of living cells to reduce yellow 3-(4,5-dimethylthiazol-2-yl)-2,5-diphenyl tetrazolium bromide (MTT) to purple formazan product. Therefore, the amount of the purple formazan product is proportional to the number of the living cells and thus can be determined by spectrophotomter.
In a 12-wells cell plate, 1×10^3 cells were implanted into each well and stayed for 24 hours to let the cells attach to the wail of the well. Then, the compounds I, II, Ill and arbutin (positive control; PC) were respectively added into each wells and cultured for 72 hours. Next, MTT dye (Applichem Co., Denmark) dissolved in 0.5 mg/ml PBS solution was added to each well to react for 2 hours. The obtained purple formazan product was dissolved in 400 μL of DMSO, and then the absorbance of the purple DMSO solution was analyzed by microplate reader to get the absorbance at 570 nm. The cell viability rate was determined by the formula below.
Cell viability rate (%)=(Absorbance of test group/absorbance of blank group)×100%

[2] = tested on: B16-F10 murine melanoma cells; assay: Analysis of melanin content in B16-F10 murine melanoma cells (α-MSH stimulated); format: cell-based; conditions: for melanin content in the melanoma cells: B16-F10 cells, 25, 50 and 100 μM, FIG. 8B; for melanin content in the melanoma cells / IC50: 100 nM α-MSH, 72 hours; for IC50: Mus musculus, B16-F10 cells, read-out: IC50 for inhibiting the melanogenesis; for inhibitory activity of melanogenesis: summary statement on the isolated compounds
Experimental: The melanin content in B16-F10 murine melanoma cells was analyzed by a modified Hosoi method disclosed in 1985 (Hosoi J, Abe E, Suda T, Kuroki T, Regulation of melanin synthesis of B16 mouse melanoma cells by 1 alpha, 25-dihydroxyvitamin D3 and retinoic acid. Cancer Res. 1985; 45(4):1474-8).
First, in a 12-wells cell plate, 1×10^3 cells were implanted into each well and stayed for 24 hours to let the cells attach to the wall of the well. Various concentrations (25, 50, and 100 μM) of the compounds I, II, III, and arbutin (positive control; PC) were respectively added into each wells, and 100 nM of α-melanocyte stimulating hormone (α-MSH) was subsequently adaded. The cells were cultured for 72 hours. After the treatment above, cells were washed by PBS, and then treated by trypsin to desorb the cells. 150 μL of 1N NaOH solution containing 10% DMSO was then added and heated in a 80° C. water bath for 1 hour. After cooling to room temperature, the samples were centrifuge at 5000 rpm for 10 minutes. The upper solution was transferred into a 96-wells plate and analyzed by a microplate reader at 405 nm. The absorbance at 405 nm for each sample was read to calculate the melanin content of each sample.

[3] = tested on: NHEKs in Leiden epidermal models (LEMs); assay: Viability test of human epidermal skin equivalents (Leiden epidermal models, MTT); format: cell-based; conditions: 24 hours exposure
Experimental: In this test, fresh mamma reduction surplus skin of a single individual (D002, Fitzpatrick skin type I/II) was used for isolation of normal human epidermal keratinocytes (NHEKs).
Leiden epidermal models (LEMs) were generated by seeding NHEKs on an inert filter insert. The NHEKs in LEMS were incubated overnight under submerged conditions in keratinocyte medium. Within four days, fetal bovine serum was gradually omitted and the NHEKs in LEMs were cultured serum-free at the air-liquid interface for 7 days, while culture medium was refreshed twice a week.
Viability assays were performed by adding 0,5 mL of 1 mg/mL MTT to each of the NHEKs in LEMs for 3h, after 24 hours exposure to the test articles (compounds II, III, and DMSO (negative control)). The precipitated blue formazan product was extracted from the cells within 2 hours with 0.5 mL isopropanol per well. The concentration of formazan was measured by determining the OD at 570 nm using a Tecan Infinite F50 microplate reader.

[4] = concentration of 10-100 μM, FIG. 8C

| inhibitory effect to the tyrosinase activity (tyrosinase) | IC50 [2] [µM] | Compound | cytotoxicity to the B16-F10 murine melanoma cells [1] | cell viability [1] | melanin content in the melanoma cells [2] | inhibitory activity of melanogenesis [2] | cytotoxicity to the NHEKs in the Leiden epidermal models [3] | cell viability ([3]; 10 μM) [%] | cell viability ([3]; 100 μM) [%] | cell viability [3, 4] | cell growth ([1]; at a concentration of 100 μM) | cell viability ([3]; 50 μM) [%] |
| --- | --- | --- | --- | --- | --- | --- | --- | --- | --- | --- | --- | --- |
| do not show obvious inhibitory effect | 100 ± 12.9 | CCCC[C@@H]1OC(=O)[C@H]2CCCC[C@@H]12 [compound I, 3-Butylhexahydrophthalide] | did not have cytotoxicity | did not affect the cell viability | can decrease the melanin content | have inhibitory activity of melanogenesis |  |  |  |  |  |  |
| do not show obvious inhibitory effect | 31.1 ± 6.8 | CCCC[C@@H]1OC(=O)C2=CCCC[C@H]21 [compound II, Neocnidilide] | did not have cytotoxicity | did not affect the cell viability | can decrease the melanin content | have inhibitory activity of melanogenesis | did not have cytotoxicity | 97 | 92 | did not affect the cell viability |  |  |
| do not show obvious inhibitory effect | 78.9 ± 8.1 | C=CC(c1ccc(O)c(OC)c1)c1cc(/C=C/C(=O)O)cc(OC)c1O (stereo not drawn) [compound III] | did not have cytotoxicity |  | can decrease the melanin content | have inhibitory activity of melanogenesis | did not have cytotoxicity | 98 | 106 | did not affect the cell viability | slight tendency to inhibit cell growth | 104 |
